Experimental findings from US20240360102A1, “PYRIMIDINE-4,6-DIAMINE DERIVATIVE, A PREPARATION METHOD THEREFOR, AND A PHARMACEUTICAL APPLICATION THEREOF” (Abbisko Therapeutics Co., Ltd., priority 2021, published 2024) are described below.

Common to all, as to assay type: cell-based
Assay [1] deals with Ba/F3 EGFR-L858R (Homo sapiens, UniProt P00533, L858R, cells depend on it). Put plainly: Cell proliferation study (CellTiter-Glo), Ba/F3 EGFR-L858R. As to conditions: 72 hrs, CTG, read-out: L858R IC50. The protocol:
(§1) • DMEM medium (Gibco, 11965118) • RPMI1640 medium (Gibco, 11875119) • Fetal bovine serum (FBS) (GBICO, Cat #10099-141) • CellTiter-Glo® luminescent cell viability assay kit (Promega, Cat #G7572) • Black transparent flat-bottom 96-well plate (Corning®, Cat #3603)
(§2) • SpectraMax multi-label microplate reader MD, 2104-0010A; • Carbon dioxide incubator, Thermo Scientific 3100 series; • Biological safety cabinet, Thermo Scientific, 1300 series model A2; • Inverted microscope, Olympus, CKX41SF; • Siemens refrigerator, KK25E76TI.
(§3) • (1) Cells in the logarithmic growth phase were harvested and counted using a […]. The cell viability was determined by the trypan blue dye exclusion method to ensure cell viability above 90%. • (2) The cell concentration was adjusted to reach a desired final density; 90 μL of cell suspension was added to a 96-well plate. • (3) The cells were incubated overnight in the 96-well plate at 37° C., 5% CO2 and with 95% humidity.
(§4) • (1) 10 μL of PBS was added to each well of the TO plate containing the cells, • (2) The CTG reagent was thawed and the cell plate was equilibrated to room temperature for 30 min. • (3) An equal volume of CTG solution was added to each well. • (4) The cells were lysed by shaking on an orbital shaker for 5 min. • (5) The cell plate was left to stand at room temperature for 20 min to stabilize the fluorescence signal. • (6) The fluorescence signal values of TO were read.
(§5) • (1) According to the compound information table, a corresponding volume of DMSO was added to the corresponding compound powder to prepare a 10 mM stock solution. • (2) A 1000-fold, 3.16-fold-diluted compound solution was prepared. • (3) The 1000× diluted compound solution was diluted 100-fold with PBS to prepare a 10-fold compound solution with a maximum concentration of 10 μM, including 9 concentrations, with 3.16-fold dilution, and 10 μL of the medicament solution was added to each well of the 96-well plate to seed the cells. […]
(§6) • (1) The CTG reagent was thawed and the cell plate was equilibrated to room temperature for 30 min. • (2) An equal volume of CTG solution was added to each well. • (3) The cells were lysed by shaking on an orbital shaker for 5 min. • (4) The cell plate was left to stand at room temperature for 20 min to stabilize the fluorescence signal. • (5) The fluorescence values were read.
(§7) Data were analyzed using GraphPad Prism 7.0 software and fitted data were regressed using non-linear S-curves to obtain dose-response curves from which IC50 values (in nM) were calculated.
On the technique in general: In ATP-based viability assays light output follows the ATP content of the culture.

Assay [2] deals with A431. Put plainly: Cell proliferation study (CellTiter-Glo), A431 WT. As to conditions: Homo sapiens, A-431; A431 cells, 72 hrs, CTG. The protocol:
as §1, §2, §3, §4
(§8) • (1) According to the compound information table, a corresponding volume of DMSO was added to the corresponding compound powder to prepare a 10 mM stock solution. • (2) A 1000-fold, 3.16-fold-diluted compound solution was prepared. • (3) The 1000× diluted compound solution was diluted 100-fold with PBS to prepare a 10-fold compound solution with a maximum concentration of 10 μM, including 9 concentrations, with 3.16-fold dilution, and 10 μL of the medicament solution was added to each well of the 96-well plate to seed the cells. Triplicate wells were set for each compound concentration, with a final concentration of DMSO being 0.1%. • (4) The cells were placed in the 96-well plate containing the medicament at 37° C., 5% CO2 and with 95% humidity, and cultured for 72 hrs before CTG analysis,
as §6, §7

Assay [3] has as its target Ba/F3 EGFR-Del19-C797S (Homo sapiens, UniProt P00533, C797S, cells depend on it, form not given). Put plainly: Cell proliferation study (CellTiter-Glo), Ba/F3 EGFR-Del19-C797S. The conditions noted are these: 72 hrs, CTG, read-out: Del19/C797S IC50. As to the method:
as §1, §2, §3, §4, §8, §6, §7

The target of assay [4] is Ba/F3 EGFR-Del19 (Homo sapiens, UniProt P00533, cells depend on it, form not given). Put plainly: Cell proliferation study (CellTiter-Glo), Ba/F3 EGFR-Del19. As to conditions: 72 hrs, CTG, read-out: Del19 IC50. As to the method:
as §1, §2, §3, §4, §5, §6, §7

In assay [5] the target is Ba/F3 EGFR-L858R-C797S (Homo sapiens, UniProt P00533, C797S/L858R, cells depend on it). Nature of the assay: Cell proliferation study (CellTiter-Glo), Ba/F3 EGFR-L858R-C797S. As to conditions: 72 hrs, CTG, read-out: L858R/C797S IC50. The protocol:
as §1, §2, §3, §4, §8, §6, §7

What is called IC50 is the concentration needed to halve the response being measured. Read a low IC50 as greater potency in that assay.

Ba/F3 EGFR-L858R-C797S, sequence (P00533 whole entry C797S/L858R): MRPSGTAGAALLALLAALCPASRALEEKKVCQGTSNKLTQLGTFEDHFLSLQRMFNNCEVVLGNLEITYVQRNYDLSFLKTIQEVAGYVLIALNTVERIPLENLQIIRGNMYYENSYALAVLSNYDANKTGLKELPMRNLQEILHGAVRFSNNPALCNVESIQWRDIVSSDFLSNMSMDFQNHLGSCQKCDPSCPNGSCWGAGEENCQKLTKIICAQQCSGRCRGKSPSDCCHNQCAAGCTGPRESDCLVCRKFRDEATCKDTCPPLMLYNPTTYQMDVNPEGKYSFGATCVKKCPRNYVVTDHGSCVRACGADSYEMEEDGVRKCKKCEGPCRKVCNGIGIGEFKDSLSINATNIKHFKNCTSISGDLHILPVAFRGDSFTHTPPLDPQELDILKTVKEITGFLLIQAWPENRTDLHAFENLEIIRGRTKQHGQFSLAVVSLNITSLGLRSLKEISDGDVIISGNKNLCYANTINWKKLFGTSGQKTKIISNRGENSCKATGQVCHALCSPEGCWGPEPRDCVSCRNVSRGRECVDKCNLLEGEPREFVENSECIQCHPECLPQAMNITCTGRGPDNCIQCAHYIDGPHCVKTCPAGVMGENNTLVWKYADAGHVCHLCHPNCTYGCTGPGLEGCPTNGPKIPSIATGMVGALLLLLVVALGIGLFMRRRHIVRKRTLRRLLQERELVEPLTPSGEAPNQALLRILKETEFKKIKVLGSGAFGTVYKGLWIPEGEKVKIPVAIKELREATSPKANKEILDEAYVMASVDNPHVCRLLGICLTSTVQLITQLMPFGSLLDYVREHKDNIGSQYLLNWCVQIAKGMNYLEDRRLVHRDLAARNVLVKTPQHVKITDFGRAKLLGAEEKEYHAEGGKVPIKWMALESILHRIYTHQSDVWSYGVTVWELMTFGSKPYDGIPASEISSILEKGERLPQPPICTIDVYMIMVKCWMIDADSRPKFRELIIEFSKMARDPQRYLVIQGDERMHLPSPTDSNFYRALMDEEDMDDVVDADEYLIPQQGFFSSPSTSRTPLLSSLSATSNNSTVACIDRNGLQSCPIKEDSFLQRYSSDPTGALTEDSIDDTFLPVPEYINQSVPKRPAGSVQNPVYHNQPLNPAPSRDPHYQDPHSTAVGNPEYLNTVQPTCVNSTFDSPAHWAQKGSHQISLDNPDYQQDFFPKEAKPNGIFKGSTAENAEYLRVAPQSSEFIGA
Ba/F3 EGFR-Del19-C797S, sequence (P00533 with tags, fused parts or gaps DEL746-750/C797S, form open): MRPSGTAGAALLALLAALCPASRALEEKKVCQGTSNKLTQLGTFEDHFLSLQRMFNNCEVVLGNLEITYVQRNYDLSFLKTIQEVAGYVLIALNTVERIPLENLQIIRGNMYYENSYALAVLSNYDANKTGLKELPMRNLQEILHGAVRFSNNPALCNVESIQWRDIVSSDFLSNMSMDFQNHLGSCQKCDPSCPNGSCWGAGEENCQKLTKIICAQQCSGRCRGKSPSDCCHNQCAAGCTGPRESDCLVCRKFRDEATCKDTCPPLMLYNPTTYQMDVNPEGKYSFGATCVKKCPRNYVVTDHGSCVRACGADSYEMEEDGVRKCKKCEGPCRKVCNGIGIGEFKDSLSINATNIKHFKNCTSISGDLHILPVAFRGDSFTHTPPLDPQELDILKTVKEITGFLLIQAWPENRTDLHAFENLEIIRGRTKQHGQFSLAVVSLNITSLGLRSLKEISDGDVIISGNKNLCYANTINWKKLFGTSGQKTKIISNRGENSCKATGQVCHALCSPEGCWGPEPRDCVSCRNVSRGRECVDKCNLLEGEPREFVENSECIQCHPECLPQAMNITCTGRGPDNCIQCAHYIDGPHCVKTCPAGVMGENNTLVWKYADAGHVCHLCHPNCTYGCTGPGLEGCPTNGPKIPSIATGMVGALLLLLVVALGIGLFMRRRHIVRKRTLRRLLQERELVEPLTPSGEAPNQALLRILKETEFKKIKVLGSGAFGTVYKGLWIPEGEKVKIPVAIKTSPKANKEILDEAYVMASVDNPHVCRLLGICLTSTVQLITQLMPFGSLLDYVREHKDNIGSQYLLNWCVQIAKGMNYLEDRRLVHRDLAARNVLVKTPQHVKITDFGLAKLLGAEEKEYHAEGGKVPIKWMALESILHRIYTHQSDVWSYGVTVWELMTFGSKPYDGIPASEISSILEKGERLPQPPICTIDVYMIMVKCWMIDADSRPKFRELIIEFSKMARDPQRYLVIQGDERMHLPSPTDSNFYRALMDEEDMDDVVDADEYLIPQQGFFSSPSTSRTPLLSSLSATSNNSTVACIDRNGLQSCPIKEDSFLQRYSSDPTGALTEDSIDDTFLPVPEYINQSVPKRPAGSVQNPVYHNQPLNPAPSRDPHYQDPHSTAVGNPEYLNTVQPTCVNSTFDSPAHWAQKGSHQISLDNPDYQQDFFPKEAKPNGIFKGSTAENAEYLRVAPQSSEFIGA
Ba/F3 EGFR-L858R, sequence (P00533 whole entry L858R): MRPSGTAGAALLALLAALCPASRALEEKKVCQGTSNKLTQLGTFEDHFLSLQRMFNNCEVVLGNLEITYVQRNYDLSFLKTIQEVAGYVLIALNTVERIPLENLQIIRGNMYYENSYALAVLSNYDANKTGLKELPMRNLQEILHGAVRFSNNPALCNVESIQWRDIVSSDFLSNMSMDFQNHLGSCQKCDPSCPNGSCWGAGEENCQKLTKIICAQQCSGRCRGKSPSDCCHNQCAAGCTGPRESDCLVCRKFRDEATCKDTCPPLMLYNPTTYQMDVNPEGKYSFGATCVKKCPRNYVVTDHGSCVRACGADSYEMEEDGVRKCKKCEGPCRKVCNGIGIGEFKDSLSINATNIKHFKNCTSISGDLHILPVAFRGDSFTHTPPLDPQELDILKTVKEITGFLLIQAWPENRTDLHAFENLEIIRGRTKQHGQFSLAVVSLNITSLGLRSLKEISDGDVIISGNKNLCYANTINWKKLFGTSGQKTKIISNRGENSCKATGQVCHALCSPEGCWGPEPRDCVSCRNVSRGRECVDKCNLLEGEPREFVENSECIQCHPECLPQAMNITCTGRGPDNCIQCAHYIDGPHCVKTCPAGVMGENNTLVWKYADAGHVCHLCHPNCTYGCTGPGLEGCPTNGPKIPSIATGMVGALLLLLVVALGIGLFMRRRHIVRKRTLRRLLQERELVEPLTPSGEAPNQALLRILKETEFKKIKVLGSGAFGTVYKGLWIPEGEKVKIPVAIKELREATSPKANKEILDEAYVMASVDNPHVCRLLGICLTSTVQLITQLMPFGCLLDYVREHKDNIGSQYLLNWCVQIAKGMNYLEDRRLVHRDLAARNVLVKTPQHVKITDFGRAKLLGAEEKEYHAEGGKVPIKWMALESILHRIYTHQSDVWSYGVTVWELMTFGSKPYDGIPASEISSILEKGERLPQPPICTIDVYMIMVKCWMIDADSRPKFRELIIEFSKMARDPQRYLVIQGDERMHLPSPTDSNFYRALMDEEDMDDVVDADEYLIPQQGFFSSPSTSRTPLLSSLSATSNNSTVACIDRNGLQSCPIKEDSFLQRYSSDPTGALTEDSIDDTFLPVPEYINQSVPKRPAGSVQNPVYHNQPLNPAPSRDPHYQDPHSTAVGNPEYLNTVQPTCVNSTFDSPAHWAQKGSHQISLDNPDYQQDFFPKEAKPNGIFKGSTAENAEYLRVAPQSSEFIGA
Ba/F3 EGFR-Del19, sequence (P00533 with tags, fused parts or gaps DEL746-750): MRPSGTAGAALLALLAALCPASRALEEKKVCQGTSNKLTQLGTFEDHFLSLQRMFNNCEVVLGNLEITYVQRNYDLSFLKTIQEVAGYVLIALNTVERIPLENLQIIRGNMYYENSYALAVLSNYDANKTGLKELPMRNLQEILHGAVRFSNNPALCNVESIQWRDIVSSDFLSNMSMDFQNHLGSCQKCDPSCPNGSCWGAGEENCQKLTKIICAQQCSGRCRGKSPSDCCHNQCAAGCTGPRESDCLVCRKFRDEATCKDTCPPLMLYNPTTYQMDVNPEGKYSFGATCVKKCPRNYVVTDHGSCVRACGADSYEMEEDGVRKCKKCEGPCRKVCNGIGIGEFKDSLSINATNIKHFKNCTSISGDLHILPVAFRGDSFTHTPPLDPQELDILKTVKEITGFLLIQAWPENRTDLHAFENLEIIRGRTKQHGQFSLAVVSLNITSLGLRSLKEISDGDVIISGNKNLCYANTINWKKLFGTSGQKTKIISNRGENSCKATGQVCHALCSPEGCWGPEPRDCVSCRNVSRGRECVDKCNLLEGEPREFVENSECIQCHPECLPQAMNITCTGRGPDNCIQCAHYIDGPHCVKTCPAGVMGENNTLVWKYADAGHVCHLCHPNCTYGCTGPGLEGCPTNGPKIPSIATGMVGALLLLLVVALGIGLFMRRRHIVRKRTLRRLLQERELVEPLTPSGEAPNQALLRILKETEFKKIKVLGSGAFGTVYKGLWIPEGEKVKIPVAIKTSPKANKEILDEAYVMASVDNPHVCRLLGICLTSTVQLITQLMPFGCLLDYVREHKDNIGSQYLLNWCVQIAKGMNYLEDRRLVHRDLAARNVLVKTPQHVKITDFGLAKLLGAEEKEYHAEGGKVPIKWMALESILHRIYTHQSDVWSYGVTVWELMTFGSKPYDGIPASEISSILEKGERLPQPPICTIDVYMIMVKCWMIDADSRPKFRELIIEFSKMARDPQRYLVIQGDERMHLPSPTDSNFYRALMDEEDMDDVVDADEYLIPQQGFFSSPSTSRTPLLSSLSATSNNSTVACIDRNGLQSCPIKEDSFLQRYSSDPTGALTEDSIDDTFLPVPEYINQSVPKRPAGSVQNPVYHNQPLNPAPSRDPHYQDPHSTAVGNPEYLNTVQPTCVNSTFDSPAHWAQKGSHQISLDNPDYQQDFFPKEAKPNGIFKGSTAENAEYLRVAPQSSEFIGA

Turning to `COc1cc(N2CCC(N3CCN(C)CC3)CC2)c(C)cc1Nc1cc(Nc2ccnc(-c3ccccc3F)c2)ncn1` [Example 1, N^4-(2-(2-fluorophenyl)pyridin-4-yl)-N^6-(2-methoxy-5-methyl-4-(4-(4-methylpiperazin-1-yl)piperidin-1-yl)phenyl)pyrimidine-4,6-diamine], the GI50 in assay [1] was determined as 0.003 µM; in assay [3] it was 0.0037 µM; in assay [4], 0.0034 µM; in assay [5], 0.0091 µM. The compound also came in with a 50% inhibitory concentration (IC50) in assay [2] of 0.182 µM.

As for `COc1cc(N2CCC(N3CCOCC3)CC2)c(C)cc1Nc1cc(Nc2ccnc(-c3ccccc3F)c2)ncn1` [Example 2, N^4-(2-(2-fluorophenyl)pyridin-4-yl)-N^6-(2-methoxy-5-methyl-4-(4-morpholinopiperidin-1-yl)phenyl)pyrimidine-4,6-diamine], the GI50 in assay [1] was 0.0029 µM; in assay [3], 0.0174 µM; in assay [4], 0.0028 µM; in assay [5] it was 0.0104 µM. The compound further had an IC50 in assay [2] of 0.554 µM.

Take `CCOc1cc(N2CCC(N3CCN(C)CC3)CC2)c(C)cc1Nc1cc(Nc2ccnc(-c3ccccc3F)c2)ncn1` [Example 3, N^4-(2-ethoxy-5-methyl-4-(4-(4-methylpiperazin-1-yl)piperidin-1-yl)phenyl)-N^6-(2-(2-fluorophenyl)pyridin-4-yl)pyrimidine-4,6-diamine]: the IC50 in assay [2] was found to be 0.217 µM. Besides, the GI50 in assay [5] amounted to 0.0233 µM.

With `Cc1cc(Nc2cc(Nc3ccnc(-c4ccccc4F)c3)ncn2)c(OC(F)F)cc1N1CCC(N2CCN(C)CC2)CC1` [Example 4, N^4-(2-(difluoromethoxy)-5-methyl-4-(4-(4-methylpiperazin-1-yl)piperidin-1-yl)phenyl)-N^6-(2-(2-fluorophenyl)pyridin-4-yl)pyrimidine-4,6-diamine], the GI50 in assay [1] was found to be 0.0062 µM; in assay [3], 0.0127 µM; in assay [4] it was 0.0066 µM; in assay [5], 0.0121 µM. Further, the midpoint of inhibition in assay [2], the IC50, lay at 0.237 µM.

On to `Cc1cc(Nc2cc(Nc3ccnc(-c4ccccc4F)c3)ncn2)c(OCC(F)(F)F)cc1N1CCC(N2CCN(C)CC2)CC1` [Example 5, N^4-(2-(2-fluorophenyl)pyridin-4-yl)-N^6-(5-methyl-4-(4-(4-methylpiperazin-1-yl)piperidin-1-yl)-2-(2,2,2-trifluoroethoxy)phenyl)pyrimidine-4,6-diamine], for which the GI50 in assay [5] was determined as 0.0532 µM.

As for `CCc1cc(Nc2cc(Nc3ccnc(-c4ccccc4F)c3)ncn2)c(OC)cc1N1CCC(N2CCN(C)CC2)CC1` [Example 6, N^4-(5-ethyl-2-methoxy-4-(4-(4-methylpiperazin-1-yl)piperidin-1-yl)phenyl)-N^6-(2-(2-fluorophenyl)pyridin-4-yl)pyrimidine-4,6-diamine], the 50% inhibitory concentration (IC50) in assay [2] was 1.08 µM. Further, the values for the GI50 in assay [3] and in assay [5] were 0.0237 µM and 0.0321 µM, respectively.

Regarding `COc1cc(N2CCC(N3CCN(C)CC3)CC2)c(C(C)C)cc1Nc1cc(Nc2ccnc(-c3ccccc3F)c2)ncn1` [Example 7, N^4-(2-(2-fluorophenyl)pyridin-4-yl)-N^6-(5-isopropyl-2-methoxy-4-(4-(4-methylpiperazin-1-yl)piperidin-1-yl)phenyl)pyrimidine-4,6-diamine], 2.5 µM corresponded to half-maximal inhibition in assay [2] (IC50). For the same compound, the GI50 in assay [5] was 0.0691 µM.

As for `COc1cc(N2CCC(N3CCN(C)CC3)CC2)c(C2CC2)cc1Nc1cc(Nc2ccnc(-c3ccccc3F)c2)ncn1` [Example 8, N^4-(5-cyclopropyl-2-methoxy-4-(4-(4-methylpiperazin-1-yl)piperidin-1-yl)phenyl)-N^6-(2-(2-fluorophenyl)pyridin-4-yl)pyrimidine-4,6-diamine], the IC50 in assay [2] was 1.66 µM. For the same compound, the GI50 in assay [3] was 0.0346 µM; in assay [5] it was 0.04 µM.

In turn, `COc1cc(N2CCC(N3CCN(C)CC3)CC2)c(-c2cnn(C)c2)cc1Nc1cc(Nc2ccnc(-c3ccccc3F)c2)ncn1` [Example 9, N^4-(2-(2-fluorophenyl)pyridin-4-yl)-N^6-(2-methoxy-5-(1-methyl-1H-pyrazol-4-yl)-4-(4-(4-methylpiperazin-1-yl)piperidin-1-yl)phenyl)pyrimidine-4,6-diamine] returned a half-maximal inhibitory concentration (IC50) in assay [2] of 1.52 µM. Also, the GI50 in assay [5] is 0.0686 µM.

Regarding `COc1cc(N2CCOCC2)c(-c2cnn(C)c2)cc1Nc1cc(Nc2ccnc(-c3ccccc3F)c2)ncn1` [Example 10, N^4-(2-(2-fluorophenyl)pyridin-4-yl)-N^6-(2-methoxy-5-(1-methyl-1H-pyrazol-4-yl)-4-morpholinophenyl)pyrimidine-4,6-diamine], the GI50 in assay [5] was 0.117 µM.

With `COc1cc(N2CCN(C)CC2)c(-c2cnn(C)c2)cc1Nc1cc(Nc2ccnc(-c3ccccc3F)c2)ncn1` [Example 11, N^4-(2-(2-fluorophenyl)pyridin-4-yl)-N^6-(2-methoxy-5-(1-methyl-1H-pyrazol-4-yl)-4-(4-methylpiperazin-1-yl)phenyl)pyrimidine-4,6-diamine], the half-inhibitory concentration (IC50) in assay [2] was found to be 0.306 µM. Further, in assay [5], the GI50 turned out to be 0.0726 µM.

The compound `COc1cc(N2CCC(N3CCN(C)CC3)CC2)c(C)cc1Nc1cc(Nc2cncc(-c3ccccc3F)c2)ncn1` [Example 12, N^4-(5-(2-fluorophenyl)pyridin-3-yl)-N^6-(2-methoxy-5-methyl-4-(4-(4-methylpiperazin-1-yl)piperidin-1-yl)phenyl)pyrimidine-4,6-diamine] yielded an IC50 in assay [2] of 2.34 µM. In addition, the GI50 in assay [5] came out at 0.0774 µM.

Turning to `COc1cc(N2CCC(N3CCN(C)CC3)CC2)c(F)cc1Nc1cc(Nc2ccnc(-c3ccccc3F)c2)ncn1` [Example 13, N^4-(5-fluoro-2-methoxy-4-(4-(4-methylpiperazin-1-yl)piperidin-1-yl)phenyl)-N^6-(2-(2-fluorophenyl)pyridin-4-yl)pyrimidine-4,6-diamine], in assay [2], the midpoint of inhibition, the IC50, lay at 0.182 µM. Also, the figures for the GI50 in assay [3] and in assay [5] were 0.0169 µM and 0.0228 µM, respectively.

With `COc1cc(N2CCC(N3CCN(C)CC3)CC2)c(Cl)cc1Nc1cc(Nc2ccnc(-c3ccccc3F)c2)ncn1` [Example 14, N^4-(5-chloro-2-methoxy-4-(4-(4-methylpiperazin-1-yl)piperidin-1-yl)phenyl)-N^6-(2-(2-fluorophenyl)pyridin-4-yl)pyrimidine-4,6-diamine], the IC50 in assay [2] is 0.228 µM. The GI50 in assay [3] came out at 0.0219 µM; in assay [5], 0.0214 µM.

Compound `COc1cc(N2CCC(N3CCN(C)CC3)CC2)c(Br)cc1Nc1cc(Nc2ccnc(-c3ccccc3F)c2)ncn1` [Example 15, N^4-(5-bromo-2-methoxy-4-(4-(4-methylpiperazin-1-yl)piperidin-1-yl)phenyl)-N-(2-(2-fluorophenyl)pyridin-4-yl)pyrimidine-4,6-diamine] returned a 50% inhibitory concentration (IC50) in assay [2] of 0.181 µM. Besides, in assay [5], the GI50 is 0.0183 µM.

In assay [2], `CN1CCN(C2CCN(c3cc(Cl)c(Nc4cc(Nc5ccnc(-c6ccccc6F)c5)ncn4)cc3Cl)CC2)CC1` [Example 17, N^4-(2,5-dichloro-4-(4-(4-methylpiperazin-1-yl)piperidin-1-yl)phenyl)-N^6-(2-(2-fluorophenyl)pyridin-4-yl)pyrimidine-4,6-diamine] showed an IC50 of 1.06 µM. The GI50 in assay [3] is 0.085 µM; in assay [5], 0.0878 µM.

For `Cc1cc(Nc2cc(Nc3ccnc(-c4ccccc4F)c3)ncn2)c(Cl)cc1N1CCC(N2CCN(C)CC2)CC1` [Example 18, N^4-(2-chloro-5-methyl-4-(4-(4-methylpiperazin-1-yl)piperidin-1-yl)phenyl)-N^6-(2-(2-fluorophenyl)pyridin-4-yl)pyrimidine-4-diamine], it took 0.984 µM to reach half-maximal inhibition in assay [2] (IC50). The GI50 in assay [3] is 0.0251 µM; in assay [5], 0.0217 µM.
